Values after ≈ are worked out from the molar mass of the structure shown.
Legend:
[1] = target: Induced myeloid leukemia cell differentiation protein Mcl-1 (Homo sapiens, UniProt Q07820); assay: Inhibition of Mcl-1 (172-327) (unknown origin) using BIOTIN-AHXGQVGRQLAIIGDDINR-amide peptide by TR-FRET based BAK peptide displacement assay
NCI-H929 [2] = assay: Cytotoxicity against human NCI-H929 cells assessed as cell viability measured after 72 hrs incubation by CellTiterGlo assay; assay type: functional, cell-based; settings: NCI-H929, 72 h
Bcl-2-like protein 1 = Bcl-2-like protein 1 (Homo sapiens, UniProt Q07817); assay: Inhibition of Bcl-xl (1-212) (unknown origin) using BIOTIN-AHXAHXGQVGRQLAIIGDDINR-amide peptide by TR-FRET based BAK peptide displacement assay
Sequence of Bcl-2-like protein 1 (Q07817 whole entry): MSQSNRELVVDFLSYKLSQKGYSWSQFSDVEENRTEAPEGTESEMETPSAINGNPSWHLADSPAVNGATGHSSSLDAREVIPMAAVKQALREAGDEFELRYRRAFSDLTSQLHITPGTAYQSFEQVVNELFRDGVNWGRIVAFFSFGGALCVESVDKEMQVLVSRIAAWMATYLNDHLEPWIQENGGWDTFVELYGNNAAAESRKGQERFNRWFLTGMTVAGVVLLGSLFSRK

[3] = Kinetic solubility of the compound in pH 7.4 buffer measured after 24 hrs by LC-UV analysis; assay type: physicochemical; settings: read-out: Kinetic_solubility
NCI-H929 [4] = assay: Cytotoxicity against human NCI-H929 cells assessed as […] by measuring caspase 3/7 activity measured after 6 hrs by luminescence assay; assay type: functional, cell-based; settings: NCI-H929, 6 h
[5] = Passive permeability of compound at pH 7.4 incubated for 4 hrs by PAMPA assay; assay type: ADME; settings: read-out: permeability
[6] = Metabolic stability in mouse liver S9 fraction assessed as intrinsic clearance; assay type: ADME, subcellular; settings: read-out: CLH
[7] = Metabolic stability in rat liver S9 fraction assessed as intrinsic clearance; assay type: ADME, subcellular; settings: read-out: CLH
[8] = Metabolic stability in human liver S9 fraction assessed as intrinsic clearance; assay type: ADME, subcellular; settings: for microsomal CLint: liver S9 fraction, read-out: CLH
[9] = Metabolic stability in mouse liver S9 fraction assessed as half life; assay type: ADME, subcellular
[10] = Metabolic stability in rat liver S9 fraction assessed as half life; assay type: ADME, subcellular
[11] = Metabolic stability in human liver S9 fraction assessed as half life; assay type: ADME, subcellular; settings: for half-life: liver S9 fraction

Sequence of Induced myeloid leukemia cell differentiation protein Mcl-1 (Q07820 whole entry): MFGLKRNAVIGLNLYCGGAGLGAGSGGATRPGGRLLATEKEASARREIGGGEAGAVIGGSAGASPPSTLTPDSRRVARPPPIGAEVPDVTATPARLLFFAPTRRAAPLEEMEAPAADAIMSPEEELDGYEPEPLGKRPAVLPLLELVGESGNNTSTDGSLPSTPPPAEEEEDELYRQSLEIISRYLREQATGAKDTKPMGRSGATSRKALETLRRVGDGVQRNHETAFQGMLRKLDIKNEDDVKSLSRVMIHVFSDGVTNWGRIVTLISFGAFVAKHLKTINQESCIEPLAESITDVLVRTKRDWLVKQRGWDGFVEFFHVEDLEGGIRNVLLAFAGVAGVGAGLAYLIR

IC50 [1] [µM]	solubility kinetic at 24 h [3] [µM]	Papp at 4 h [5] [×10⁻⁶ cm/s]	SMILES	IC50 (NCI-H929 [2]) [µM]	IC50 (NCI-H929 [4]) [µM]	also measured
1.5	< 2		CCOc1cc(Oc2cc(C)c(Cl)c(C)c2)cc2c1OCC(=O)N[C@H]1CC[C@H](CC1)CC(=O)N[C@@H](c1ccccc1)C(=O)N[C@H](Cc1ccccc1)C(=O)NCCc1ccc(cc1)OC2	0.041	0.06	IC50 (Bcl-2-like protein 1): > 10 µM
1.6			CCOc1cc(Oc2cc(C)cc(C)c2)cc2c1OCC(=O)N[C@H]1CC[C@H](CC1)CC(=O)N[C@@H](c1ccccc1)C(=O)N[C@H](Cc1ccccc1)C(=O)NCCc1ccc(cc1)OC2	0.056		IC50 (Bcl-2-like protein 1): > 10 µM
12			CCOc1cc(Oc2cccc(C(F)(F)F)c2)cc2c1OCC(=O)N[C@H]1CC[C@H](CC1)CC(=O)N[C@@H](c1ccccc1)C(=O)N[C@H](Cc1ccccc1)C(=O)NCCc1ccc(cc1)OC2	0.18		
13	> 80	3.9	CCOc1cc(Oc2cc(C)c(Cl)c(C)c2)cc2c1OCC(=O)N[C@H]1CC[C@H](CC1)CC(=O)N[C@@H](c1ccccc1)C(=O)N[C@H](Cc1cccnc1)C(=O)N[C@H](C(=O)O)Cc1ccc(cc1)OC2		0.48	
5.3	< 2		CCOc1cc(Oc2cc(C)c(Cl)c(C)c2)cc2c1OCC(=O)N[C@H]1CC[C@H](CC1)CC(=O)N[C@@H](c1ccccc1)C(=O)N[C@H](Cc1ccccc1)C(=O)NCCc1ccc(cc1)NC2		0.057	
9.1	< 2		CCOc1cc(Oc2cc(C)cc(C)c2)cc2c1OCC(=O)N[C@H]1CC[C@H](CC1)CC(=O)N[C@@H](c1ccccc1)C(=O)N[C@H](Cc1ccccc1)C(=O)NCCc1ccc(cc1)NC2		0.094	
14	< 2	5.5	CCOc1cc(Oc2cc(C)c(Cl)c(C)c2)cc2c1OCC(=O)N[C@H]1CC[C@H](CC1)CC(=O)N[C@@H](c1ccccc1)C(=O)N[C@H](Cc1cccnc1)C(=O)NCCc1ccc(cc1)OC2		0.045	
5.3	< 2		CCOc1cc(Oc2cc(C)c(Cl)c(C)c2)cc2c1OCC(=O)N[C@H]1CC[C@H](CC1)CC(=O)N[C@@H](CCS(C)(=O)=O)C(=O)N[C@H](Cc1ccncc1)C(=O)NCCc1ccc(cc1)OC2		> 10	
9.4	< 2		CCOc1cc(Oc2cc(C)c(Cl)c(C)c2)cc2c1OCC(=O)N[C@H]1CC[C@H](CC1)CC(=O)N[C@@H]([C@@H](C)OC)C(=O)N[C@H](Cc1ccncc1)C(=O)NCCc1ccc(cc1)OC2		1.4	
5.7	> 80	< 1	CCOc1cc(Oc2cc(C)c(Cl)c(C)c2)cc2c1OCC(=O)N[C@H]1CC[C@H](CC1)CC(=O)N[C@@H](c1ccccc1)C(=O)N[C@H](Cc1ccccc1)C(=O)N[C@H](C(=O)O)Cc1ccc(cc1)NC2		1.1	
5.3	< 2	< 1	CCOc1cc(Oc2cc(C)c(Cl)c(C)c2)cc2c1OCC(=O)N[C@H]1CC[C@H](CC1)CC(=O)N[C@@H](c1ccccc1)C(=O)N[C@H](Cc1ccncc1)C(=O)NCCc1ccc(cc1)OC2		0.035	
18	< 2	7.3	CCOc1cc(Oc2cc(C)c(Cl)c(C)c2)cc2c1OCC(=O)N[C@H]1CC[C@H](CC1)CC(=O)N[C@@H](c1ccccc1)C(=O)N1CCC[C@@H]1C(=O)NCCc1ccc(cc1)OC2		0.54	
22			CCOc1cc(Oc2cccc(Cl)c2)cc2c1OCC(=O)N[C@H]1CC[C@H](CC1)CC(=O)N[C@@H](c1ccccc1)C(=O)N[C@H](Cc1ccccc1)C(=O)NCCc1ccc(cc1)OC2	0.33		

Continued, compound first:

SMILES	IC50 [1] [µM]	solubility kinetic at 24 h [3] [µM]	Papp at 4 h [5] [×10⁻⁶ cm/s]	IC50 (NCI-H929 [2]) [µM]	IC50 (NCI-H929 [4]) [µM]	also measured
CCOc1cc(C#Cc2cccc(F)c2)cc2c1OCC(=O)N[C@H]1CC[C@H](CC1)CC(=O)N[C@@H](c1ccccc1)C(=O)N[C@H](Cc1ccccc1)C(=O)NCCc1ccc(cc1)OC2	7.3			2.2		
CCOc1cc(Oc2cc(C)c(Cl)c(C)c2)cc2c1OCC(=O)N[C@H]1CC[C@H](CC1)CC(=O)N[C@@H](CC(C)C)C(=O)N[C@H](Cc1cccnc1)C(=O)N[C@H](C(=O)O)Cc1ccc(cc1)OC2	31	> 80	5.3		1.1	
CCOc1cccc2c1OCC(=O)N[C@H]1CC[C@H](CC1)CC(=O)N[C@@H](c1ccccc1)C(=O)N[C@H](Cc1ccccc1)C(=O)N[C@H](C(=O)NC)Cc1ccc(cc1)NC2	0.08	< 2				IC50 (Bcl-2-like protein 1): > 10 µM; microsomal CLint [6]: 35 µL/min/mg; microsomal CLint [7]: 18 µL/min/mg; CLH ([8]; s9): 17 µL/min/mg; half-life [9]: 20 min; half-life [10]: 39 min; t1/2 ([11]; s9): 17 min
CCOc1cccc2c1OCC(=O)N[C@H]1CC[C@H](CC1)CC(=O)N[C@@H](c1ccccc1)C(=O)N[C@H](Cc1ccccc1)C(=O)N[C@H](C(=O)NC)Cc1ccc(cc1)OC2	0.05	< 2				IC50 (Bcl-2-like protein 1): > 10 µM; microsomal CLint [6]: 36 µL/min/mg; microsomal CLint [7]: 15 µL/min/mg; microsomal CLint [8]: 19 µL/min/mg; half-life [9]: 19 min; half-life [10]: 47 min; half-life [11]: 37 min
CCOc1cc(Oc2cccc3ccccc23)cc2c1OCC(=O)N[C@H]1CC[C@H](CC1)CC(=O)N[C@@H](c1ccccc1)C(=O)N[C@H](Cc1ccccc1)C(=O)NCCc1ccc(cc1)OC2	12			0.17		
CCOc1cc(Oc2cc(C)cc(C)c2)cc2c1OCC(=O)N[C@H]1CC[C@H](CC1)CC(=O)N[C@@H](c1ccccc1)C(=O)N[C@H](Cc1ccccc1)C(=O)N[C@H](C(=O)O)Cc1ccc(cc1)NC2	7.7	> 80	2		0.63	
CCOc1cc(C#Cc2ccc(C(C)(C)C)cc2)cc2c1OCC(=O)N[C@H]1CC[C@H](CC1)CC(=O)N[C@@H](c1ccccc1)C(=O)N[C@H](Cc1ccccc1)C(=O)NCCc1ccc(cc1)OC2	1.8			9.9		
CCOc1cccc2c1OCC(=O)N[C@H]1CC[C@H](CC1)CC(=O)N[C@@H](c1ccccc1)C(=O)N[C@H](Cc1ccccc1)C(=O)NCCc1ccc(cc1)OC2	0.13	< 2		> 10		IC50 (Bcl-2-like protein 1): > 10 µM; microsomal CLint [6]: 41 µL/min/mg; microsomal CLint [7]: 30 µL/min/mg; microsomal CLint [8]: 82 µL/min/mg; half-life [9]: 17 min; half-life [10]: 23 min; half-life [11]: 8 min
CCOc1cc(Oc2cc(C)c(Cl)c(C)c2)cc2c1OCC(=O)N[C@H]1CC[C@H](CC1)CC(=O)N[C@@H](CC(C)C)C(=O)N[C@H](Cc1cccnc1)C(=O)N[C@@H](C(=O)O)Cc1ccc(cc1)OC2	16	11 (≈ 10.2 µg/mL)	1.5		0.41	
CCOc1cc(C#Cc2ccc(OC)cc2)cc2c1OCC(=O)N[C@H]1CC[C@H](CC1)CC(=O)N[C@@H](c1ccccc1)C(=O)N[C@H](Cc1ccccc1)C(=O)NCCc1ccc(cc1)OC2	8			1.4		
